According to US9896435B2, “N-pyrrolidinyl,N′-pyrazolyl-urea, thiourea, guanidine and cyanoguanidine compounds as TrkA kinase inhibitors” (Array BioPharma Inc., priority 2012, dated 2018):

Key:
Test in all cases: KinaseProfiler off-target kinase profiling
Type in all cases: biochemical
Settings in all cases: 10 μM, ATP near Km
[1] = biological target: AMPK(A1/B1/G1) (Homo sapiens (Human), UniProt Q13131)
Outline: (§1)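 Tested at 10 μM across the full kinase panel in duplicate, with ATP concentration near the Km of each kinase. Reported as POC.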

[2] = biological target: AURKA (Homo sapiens (Human), UniProt O14965)
Outline: as §1

[3] = biological target: CDK1/cyclinB (Homo sapiens (Human), UniProt P06493)
Outline: as §1

[4] = biological target: CDK9/cyclinT1 (Homo sapiens (Human), UniProt P50750)
Outline: as §1

[5] = biological target: CK2alpha2 (Homo sapiens (Human), UniProt P19784)
Outline: as §1

[6] = biological target: ERK1 (Homo sapiens (Human), UniProt P27361)
Outline: as §1

[7] = biological target: EphA1 (Homo sapiens (Human), UniProt P21709)
Outline: as §1

[8] = biological target: FGFR2 (Homo sapiens (Human), UniProt P21802)
Outline: as §1

[9] = biological target: Fgr (Homo sapiens (Human), UniProt P09769)
Outline: as §1

[10] = biological target: Flt4 (Homo sapiens (Human), UniProt P35916)
Outline: as §1

[11] = biological target: GRK5 (Homo sapiens (Human), UniProt P34947)
Outline: as §1

[12] = biological target: GRK7 (Homo sapiens (Human), UniProt Q8WTQ7)
Outline: as §1

[13] = biological target: IGF-1R Activated (Homo sapiens (Human), UniProt P08069)
Outline: as §1

[14] = biological target: IKKalpha (Homo sapiens (Human), UniProt O15111)
Outline: as §1

[15] = biological target: IR Activated (Homo sapiens (Human), UniProt P06213)
Outline: as §1

[16] = biological target: IRAK1 (Homo sapiens (Human), UniProt P51617)
Outline: as §1

[17] = biological target: ITK (Homo sapiens (Human), UniProt Q08881)
Outline: as §1

[18] = biological target: KDR (Homo sapiens (Human), UniProt P35968)
Outline: as §1

[19] = biological target: MAPKAP-K2 (Homo sapiens (Human), UniProt P49137)
Outline: as §1

[20] = biological target: MARK2 (Homo sapiens (Human), UniProt Q7KZI7)
Outline: as §1

[21] = biological target: MINK (Homo sapiens (Human), UniProt Q8N4C8)
Outline: as §1

[22] = biological target: MKK4_m (Mus musculus (Mouse), UniProt P47809)
Outline: as §1

[23] = biological target: MKNK2 (Homo sapiens (Human), UniProt Q9HBH9)
Outline: as §1

[24] = biological target: NEK3 (Homo sapiens (Human), UniProt P51956)
Outline: as §1

[25] = biological target: NEK6 (Homo sapiens (Human), UniProt Q9HC98)
Outline: as §1

[26] = biological target: NLK (Homo sapiens (Human), UniProt Q9UBE8)
Outline: as §1

[27] = biological target: PAK2 (Homo sapiens (Human), UniProt Q13177)
Outline: as §1

[28] = biological target: PAK5 (Homo sapiens (Human), UniProt Q9P286)
Outline: as §1

[29] = biological target: PDK1 (Homo sapiens (Human), UniProt O15530)
Outline: as §1

[30] = biological target: PKAC-alpha (Homo sapiens (Human), UniProt P17612)
Outline: as §1

[31] = biological target: PKD2 (Homo sapiens (Human), UniProt Q9BZL6)
Outline: as §1

[32] = biological target: Plk1 (Homo sapiens (Human), UniProt P53350)
Outline: as §1

[33] = biological target: ROCK-I (Homo sapiens (Human), UniProt Q13464)
Outline: as §1

[34] = biological target: SRPK1 (Homo sapiens (Human), UniProt Q96SB4)
Outline: as §1

[35] = biological target: TAO2 (Homo sapiens (Human), UniProt Q9UL54)
Outline: as §1

[36] = biological target: TSSK1 (Homo sapiens (Human), UniProt Q9BXA7)
Outline: as §1

[37] = biological target: c-RAF (Homo sapiens (Human), UniProt P04049, Y340D/Y341D)
Outline: as §1

[38] = biological target: eEF-2K (Homo sapiens (Human), UniProt O00418)
Outline: as §1

[39] = biological target: mTOR/FKBP12 (Homo sapiens (Human), UniProt P42345)
Outline: as §1

Sequence of NEK3 (P51956 whole entry): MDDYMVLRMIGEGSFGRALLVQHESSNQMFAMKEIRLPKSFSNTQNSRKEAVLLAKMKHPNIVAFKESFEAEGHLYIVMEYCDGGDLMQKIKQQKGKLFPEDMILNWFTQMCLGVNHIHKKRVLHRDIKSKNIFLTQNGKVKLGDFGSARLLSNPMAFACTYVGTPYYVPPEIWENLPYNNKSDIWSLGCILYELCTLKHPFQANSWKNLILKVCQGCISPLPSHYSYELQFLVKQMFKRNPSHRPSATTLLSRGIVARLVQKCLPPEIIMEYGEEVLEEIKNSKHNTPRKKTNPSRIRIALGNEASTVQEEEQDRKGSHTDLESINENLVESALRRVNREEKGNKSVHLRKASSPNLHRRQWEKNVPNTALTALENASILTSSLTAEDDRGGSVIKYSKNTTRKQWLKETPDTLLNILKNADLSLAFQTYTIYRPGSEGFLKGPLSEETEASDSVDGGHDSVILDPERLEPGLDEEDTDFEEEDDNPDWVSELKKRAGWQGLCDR
Sequence of PDK1 (O15530 whole entry): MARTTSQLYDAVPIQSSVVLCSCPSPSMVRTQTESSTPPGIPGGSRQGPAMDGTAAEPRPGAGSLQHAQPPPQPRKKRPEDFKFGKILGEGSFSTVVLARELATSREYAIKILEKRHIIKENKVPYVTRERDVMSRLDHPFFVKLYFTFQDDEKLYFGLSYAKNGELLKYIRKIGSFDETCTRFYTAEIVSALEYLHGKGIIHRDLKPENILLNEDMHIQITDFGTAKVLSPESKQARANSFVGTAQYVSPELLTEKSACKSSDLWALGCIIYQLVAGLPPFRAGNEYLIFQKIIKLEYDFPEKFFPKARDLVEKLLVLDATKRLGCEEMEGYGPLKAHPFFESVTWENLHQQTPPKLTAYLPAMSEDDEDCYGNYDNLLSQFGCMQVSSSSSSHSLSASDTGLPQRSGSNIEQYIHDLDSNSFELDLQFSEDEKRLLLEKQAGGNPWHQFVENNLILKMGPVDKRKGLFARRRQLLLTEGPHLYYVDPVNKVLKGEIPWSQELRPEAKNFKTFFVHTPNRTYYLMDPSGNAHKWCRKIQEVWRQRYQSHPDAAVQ
Sequence of Flt4 (P35916 25-1363): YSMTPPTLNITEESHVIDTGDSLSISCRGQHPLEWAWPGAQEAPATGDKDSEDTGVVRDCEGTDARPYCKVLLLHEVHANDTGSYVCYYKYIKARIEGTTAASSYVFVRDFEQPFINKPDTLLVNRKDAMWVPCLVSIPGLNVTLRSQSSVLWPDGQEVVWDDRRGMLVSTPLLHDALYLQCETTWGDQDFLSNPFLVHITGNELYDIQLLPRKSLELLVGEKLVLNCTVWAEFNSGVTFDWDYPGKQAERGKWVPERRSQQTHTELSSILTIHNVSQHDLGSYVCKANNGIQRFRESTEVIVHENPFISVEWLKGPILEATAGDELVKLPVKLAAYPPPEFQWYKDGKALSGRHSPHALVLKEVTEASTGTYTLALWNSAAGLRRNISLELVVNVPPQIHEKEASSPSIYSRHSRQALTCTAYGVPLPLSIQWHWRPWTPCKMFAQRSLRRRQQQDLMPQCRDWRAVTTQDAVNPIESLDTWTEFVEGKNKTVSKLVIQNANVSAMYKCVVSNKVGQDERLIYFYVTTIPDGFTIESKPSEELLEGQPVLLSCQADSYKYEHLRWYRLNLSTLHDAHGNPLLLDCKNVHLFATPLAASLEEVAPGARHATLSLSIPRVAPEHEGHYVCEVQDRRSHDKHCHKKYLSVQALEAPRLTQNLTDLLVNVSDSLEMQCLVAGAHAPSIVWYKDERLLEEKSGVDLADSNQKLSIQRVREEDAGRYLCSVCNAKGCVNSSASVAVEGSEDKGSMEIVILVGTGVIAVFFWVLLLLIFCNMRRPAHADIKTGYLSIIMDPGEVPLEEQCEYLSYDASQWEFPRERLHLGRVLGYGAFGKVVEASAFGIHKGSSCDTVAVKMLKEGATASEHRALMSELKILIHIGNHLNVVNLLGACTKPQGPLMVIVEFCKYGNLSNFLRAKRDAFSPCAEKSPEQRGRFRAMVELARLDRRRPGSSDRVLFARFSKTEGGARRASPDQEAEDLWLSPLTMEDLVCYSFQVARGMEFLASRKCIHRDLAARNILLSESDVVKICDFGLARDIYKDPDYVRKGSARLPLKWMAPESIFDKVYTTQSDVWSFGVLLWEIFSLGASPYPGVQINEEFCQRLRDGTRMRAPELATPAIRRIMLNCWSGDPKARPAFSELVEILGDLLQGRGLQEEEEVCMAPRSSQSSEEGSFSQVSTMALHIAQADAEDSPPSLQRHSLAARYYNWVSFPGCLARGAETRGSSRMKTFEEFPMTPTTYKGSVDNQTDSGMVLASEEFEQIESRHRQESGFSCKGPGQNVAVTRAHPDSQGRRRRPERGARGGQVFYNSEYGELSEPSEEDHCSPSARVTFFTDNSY
Sequence of GRK5 (P34947 whole entry): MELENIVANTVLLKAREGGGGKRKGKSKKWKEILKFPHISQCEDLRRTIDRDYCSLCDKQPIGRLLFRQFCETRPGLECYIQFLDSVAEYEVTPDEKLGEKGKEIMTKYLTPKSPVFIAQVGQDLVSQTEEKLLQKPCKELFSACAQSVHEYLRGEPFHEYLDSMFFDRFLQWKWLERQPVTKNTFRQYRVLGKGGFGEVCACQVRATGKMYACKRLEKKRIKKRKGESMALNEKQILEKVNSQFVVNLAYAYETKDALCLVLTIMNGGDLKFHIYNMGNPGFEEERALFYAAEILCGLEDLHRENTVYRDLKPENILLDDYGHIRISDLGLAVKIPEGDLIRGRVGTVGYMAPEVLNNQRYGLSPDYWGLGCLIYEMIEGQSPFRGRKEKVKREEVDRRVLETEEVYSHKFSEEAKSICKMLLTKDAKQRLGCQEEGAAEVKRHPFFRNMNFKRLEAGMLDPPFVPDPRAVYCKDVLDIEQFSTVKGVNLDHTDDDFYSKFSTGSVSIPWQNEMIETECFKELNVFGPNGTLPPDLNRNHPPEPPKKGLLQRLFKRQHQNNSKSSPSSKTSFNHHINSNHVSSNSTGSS
Sequence of Plk1 (P53350 whole entry): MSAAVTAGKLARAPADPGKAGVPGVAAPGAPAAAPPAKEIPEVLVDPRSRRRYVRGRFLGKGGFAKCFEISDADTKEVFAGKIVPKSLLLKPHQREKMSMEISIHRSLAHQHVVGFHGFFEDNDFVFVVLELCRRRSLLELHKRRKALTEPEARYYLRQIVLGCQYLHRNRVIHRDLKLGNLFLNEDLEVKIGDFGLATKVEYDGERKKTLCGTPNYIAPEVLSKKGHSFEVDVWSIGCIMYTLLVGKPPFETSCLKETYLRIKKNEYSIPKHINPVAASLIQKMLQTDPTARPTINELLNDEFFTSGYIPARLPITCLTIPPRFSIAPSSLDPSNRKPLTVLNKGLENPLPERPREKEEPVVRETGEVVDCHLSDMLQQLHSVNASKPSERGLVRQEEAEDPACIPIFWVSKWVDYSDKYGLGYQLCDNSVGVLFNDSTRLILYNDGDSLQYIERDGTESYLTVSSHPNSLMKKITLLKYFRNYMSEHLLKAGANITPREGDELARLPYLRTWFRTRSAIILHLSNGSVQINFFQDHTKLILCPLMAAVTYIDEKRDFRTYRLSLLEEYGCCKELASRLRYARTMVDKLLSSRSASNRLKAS
Sequence of PAK2 (Q13177 whole entry): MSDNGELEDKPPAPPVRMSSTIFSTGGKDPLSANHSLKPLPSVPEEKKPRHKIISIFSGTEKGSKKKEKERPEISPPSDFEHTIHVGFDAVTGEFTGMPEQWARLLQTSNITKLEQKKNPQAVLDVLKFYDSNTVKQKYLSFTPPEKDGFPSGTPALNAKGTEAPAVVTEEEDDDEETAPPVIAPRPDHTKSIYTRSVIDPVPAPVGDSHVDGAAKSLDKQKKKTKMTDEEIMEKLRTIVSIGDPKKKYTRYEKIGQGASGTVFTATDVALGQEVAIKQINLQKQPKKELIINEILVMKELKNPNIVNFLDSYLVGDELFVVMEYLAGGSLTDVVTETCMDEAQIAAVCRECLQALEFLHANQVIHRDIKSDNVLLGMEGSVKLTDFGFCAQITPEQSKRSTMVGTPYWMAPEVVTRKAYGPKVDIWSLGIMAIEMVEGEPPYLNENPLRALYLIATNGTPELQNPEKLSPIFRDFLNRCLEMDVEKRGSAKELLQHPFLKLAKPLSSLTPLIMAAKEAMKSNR
Sequence of ERK1 (P27361 whole entry): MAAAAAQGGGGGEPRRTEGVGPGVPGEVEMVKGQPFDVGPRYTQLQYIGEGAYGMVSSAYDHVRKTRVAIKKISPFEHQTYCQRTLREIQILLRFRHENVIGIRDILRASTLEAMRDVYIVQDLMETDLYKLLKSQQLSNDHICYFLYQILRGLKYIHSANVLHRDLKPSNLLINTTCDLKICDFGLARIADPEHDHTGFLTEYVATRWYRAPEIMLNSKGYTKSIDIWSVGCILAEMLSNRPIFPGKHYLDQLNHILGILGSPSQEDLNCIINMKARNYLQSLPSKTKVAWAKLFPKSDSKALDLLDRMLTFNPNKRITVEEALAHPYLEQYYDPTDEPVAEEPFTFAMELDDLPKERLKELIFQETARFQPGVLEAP
Sequence of IGF-1R Activated (P08069 959-1367 limits assumed): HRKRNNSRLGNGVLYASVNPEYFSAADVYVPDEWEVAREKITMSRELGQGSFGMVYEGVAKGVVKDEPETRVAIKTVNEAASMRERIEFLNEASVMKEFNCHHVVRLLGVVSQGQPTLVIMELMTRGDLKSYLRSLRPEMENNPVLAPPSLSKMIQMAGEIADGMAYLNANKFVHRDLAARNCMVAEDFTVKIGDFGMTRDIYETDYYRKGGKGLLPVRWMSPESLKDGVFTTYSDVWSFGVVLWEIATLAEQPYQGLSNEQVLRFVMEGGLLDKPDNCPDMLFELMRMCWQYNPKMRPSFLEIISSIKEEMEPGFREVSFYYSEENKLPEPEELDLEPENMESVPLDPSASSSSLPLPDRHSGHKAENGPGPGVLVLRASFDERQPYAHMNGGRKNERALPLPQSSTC

| Avg POC [1] [POC] | Avg POC [2] [POC] | Avg POC [3] [POC] | Avg POC [4] [POC] | Avg POC [5] [POC] | Avg POC [6] [POC] | Avg POC [7] [POC] | Avg POC [8] [POC] | Avg POC [9] [POC] | Avg POC [10] [POC] | Avg POC [11] [POC] | Avg POC [12] [POC] | Avg POC [13] [POC] | Avg POC [14] [POC] | Avg POC [15] [POC] | Avg POC [16] [POC] | Avg POC [17] [POC] | Avg POC [18] [POC] | Avg POC [19] [POC] | Avg POC [20] [POC] | Compound | also measured |
| --- | --- | --- | --- | --- | --- | --- | --- | --- | --- | --- | --- | --- | --- | --- | --- | --- | --- | --- | --- | --- | --- |
| 118 | 116 | 104 | 104 | 119.5 | 103 | 97 | 91.5 | 108.5 | 95 | 103.5 | 104 | 102 | 121 | 106.5 | 112.5 | 111 | 116.5 | 111 | 90 | COCCN1C[C@@H](NC(=O)Nc2c(C)c(-c3ccnc(C)c3)nn2-c2ccccc2)[C@H](c2ccc(F)c(F)c2)C1 [Example 2, 1-((3S,4R)-4-(3,4-difluorophenyl)-1-(2-methoxyethyl)pyrrolidin-3-yl)-3-(4-methyl-3-(2-methylpyridin-4-yl)-1-phenyl-1H-pyrazol-5-yl)urea] | Avg POC [21]: 98 POC; Avg POC [22]: 115 POC; Avg POC [23]: 101 POC; Avg POC [24]: 97 POC; Avg POC [25]: 105.5 POC; Avg POC [26]: 111.5 POC; Avg POC [27]: 95.5 POC; Avg POC [28]: 103 POC; Avg POC [29]: 94.5 POC; Avg POC [30]: 94.5 POC; Avg POC [31]: 101.5 POC; Avg POC [32]: 100 POC; Avg POC [33]: 98 POC; Avg POC [34]: 97.5 POC; Avg POC [35]: 97 POC; Avg POC [36]: 105 POC; Avg POC [37]: 103.5 POC; Avg POC [38]: 98.5 POC; Avg POC [39]: 108.5 POC |
| 106.5 | 106 | 97 | 104 | 120 | 78.5 | 99 | 103 | 80.5 | 92.5 | 91 | 97 | 106 | 118.5 | 100.5 | 108.5 | 101 | 99 | 101 | 99.5 | COCCN1C[C@@H](NC(=O)Nc2c(C)c(-c3cnc(C)nc3)nn2-c2ccccc2)[C@H](c2cc(F)cc(F)c2)C1 [Example 14, 1-((3S,4R)-4-(3,5-difluorophenyl)-1-(2-methoxyethyl)pyrrolidin-3-yl)-3-(4-methyl-3-(2-methylpyrimidin-5-yl)-1-phenyl-1H-pyrazol-5-yl)urea] | Avg POC [21]: 89.5 POC; Avg POC [22]: 116.5 POC; Avg POC [23]: 101 POC; Avg POC [24]: 101 POC; Avg POC [25]: 102 POC; Avg POC [26]: 108.5 POC; Avg POC [27]: 92.5 POC; Avg POC [28]: 107 POC; Avg POC [29]: 101.5 POC; Avg POC [30]: 109 POC; Avg POC [31]: 108 POC; Avg POC [32]: 113 POC; Avg POC [33]: 109.5 POC; Avg POC [34]: 109.5 POC; Avg POC [35]: 102.5 POC; Avg POC [36]: 104.5 POC; Avg POC [37]: 89 POC; Avg POC [38]: 103 POC; Avg POC [39]: 113 POC |
